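Step 1: Grow cells in 96-well plates. Step 2: Expose to compound for 48 hours at 5 concentrations. Step 3: Interpolate endpoints linearly; if unreached, use highest concentration. Here, GI50 denotes the concentration required for 50% inhibition of growth.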 Active and inactive are the calls of the source. Rule as the data show it: active = GI50 up to about 1.1 µM and inactive = higher.
Tests used:
Assay in all cases: DTP human tumour cell line panel, 48 h
COLO 205 = system: COLO 205
HCT-116 = system: HCT-116
IGROV-1 = system: IGROV-1
KM12 = system: KM12
M14 = system: M14
MOLT-4 = system: MOLT-4
NCI-H23 = system: NCI-H23
NCI/ADR-RES = system: NCI/ADR-RES
OVCAR-3 = system: OVCAR-3
OVCAR-5 = system: OVCAR-5
RPMI-8226 = system: RPMI-8226
SF-268 = system: SF-268
SF-539 = system: SF-539
SK-MEL-2 = system: SK-MEL-2
SK-OV-3 = system: SK-OV-3
A549 = system: A549
NCI-H460 = system: NCI-H460
OVCAR-4 = system: OVCAR-4
T47D = system: T47D
HCC 2998 = system: HCC 2998

Measured: GI50

O=C(c1ccc(Cl)cc1Cl)N(C(=O)N1CCCCC1)c1ccccc1
inactive: COLO 205 > 100 µM | HCT-116 > 100 µM | IGROV-1 > 100 µM | KM12 > 100 µM | M14 > 100 µM | MOLT-4 > 100 µM | NCI-H23 > 100 µM | NCI/ADR-RES > 100 µM | OVCAR-3 42.5 µM | OVCAR-5 69.3 µM | RPMI-8226 > 100 µM | SF-268 > 100 µM | SF-539 > 100 µM | SK-MEL-2 > 100 µM | SK-OV-3 > 100 µM

CCCCCCCCCCCCCCCCCCNc1ccn(C2OC(CO)C(OP(=O)(O)OCC3CCC(n4ccc(N)nc4=O)O3)C2O)c(=O)n1 (configuration not stated)
inactive: A549 > 100 µM | COLO 205 45.9 µM | HCT-116 66.5 µM | IGROV-1 27.2 µM | KM12 36.3 µM | M14 42.3 µM | MOLT-4 3.9 µM | NCI-H23 > 100 µM | NCI-H460 55.8 µM | NCI/ADR-RES > 100 µM | OVCAR-3 > 100 µM | OVCAR-4 93.8 µM | OVCAR-5 57.7 µM | SF-268 27.9 µM | SF-539 32.7 µM | SK-MEL-2 > 100 µM | SK-OV-3 > 100 µM | T47D 83.4 µM

Cc1ccc(-c2c(C#N)c(-c3ccccc3)n(NS(=O)(=O)c3ccccc3)c(=O)c2C#N)cc1
inactive: A549 > 100 µM | COLO 205 > 100 µM | HCC 2998 47.3 µM | HCT-116 74.5 µM | IGROV-1 40.6 µM | KM12 89.3 µM | M14 93.3 µM | MOLT-4 20.7 µM | NCI-H460 61.7 µM | NCI/ADR-RES 63.5 µM | OVCAR-4 > 100 µM | OVCAR-5 > 100 µM | RPMI-8226 19.6 µM | SF-268 63.1 µM | SF-539 87.1 µM | SK-MEL-2 > 100 µM | SK-OV-3 > 100 µM

Cc1cc(C)c2c(c1)C/C(=C\c1cccc(C)c1C(=O)O)C2=O
inactive: A549 43.3 µM | HCC 2998 66.5 µM | HCT-116 45.9 µM | IGROV-1 50.7 µM | KM12 51.6 µM | M14 88.9 µM | MOLT-4 50.5 µM | NCI-H23 63.2 µM | NCI-H460 41.8 µM | OVCAR-3 54.5 µM | OVCAR-4 75 µM | OVCAR-5 99.5 µM | RPMI-8226 68.5 µM | SF-268 24.4 µM | SF-539 37.2 µM | SK-MEL-2 89.9 µM | T47D > 100 µM

O=C1C=C/C(=N\N=C(c2ccccc2)c2ccccc2)O1
inactive: A549 > 10 µM | COLO 205 > 10 µM | HCC 2998 > 10 µM | IGROV-1 > 10 µM | KM12 > 10 µM | M14 > 10 µM | MOLT-4 > 10 µM | NCI-H23 > 10 µM | OVCAR-4 > 10 µM | RPMI-8226 > 10 µM | SF-268 > 10 µM | SK-OV-3 > 10 µM | T47D > 10 µM

Nc1nc(-c2ccccc2)cc(-c2ccc(OCc3ccccc3)cc2O)n1
inactive: A549 33.4 µM | COLO 205 45.7 µM | HCC 2998 34.4 µM | HCT-116 28.8 µM | IGROV-1 32.7 µM | KM12 34.4 µM | M14 30.8 µM | MOLT-4 48.4 µM | NCI-H23 38.3 µM | NCI-H460 40.4 µM | NCI/ADR-RES 29.4 µM | OVCAR-3 26.7 µM | OVCAR-4 71.6 µM | OVCAR-5 > 100 µM | RPMI-8226 22.7 µM | SF-268 44.3 µM | SF-539 26 µM | SK-MEL-2 32.4 µM

CCOP(=O)(OCC)C1CC(O)CN1OC(=O)C(C)(C)C (configuration not stated)
inactive: A549 > 100 µM | COLO 205 > 100 µM | HCT-116 > 100 µM | IGROV-1 > 100 µM | KM12 > 100 µM | M14 > 100 µM | MOLT-4 > 100 µM | NCI-H23 > 100 µM | NCI/ADR-RES > 100 µM | OVCAR-3 > 100 µM | OVCAR-4 > 100 µM | OVCAR-5 > 100 µM | RPMI-8226 > 100 µM | SF-268 > 100 µM | SK-MEL-2 > 100 µM | SK-OV-3 > 100 µM

O=c1/c(=C/c2ccc3c(c2)OCO3)sc2nnc(Cc3ccccc3)n12
inactive: A549 > 100 µM | COLO 205 > 100 µM | HCC 2998 81.8 µM | HCT-116 > 100 µM | IGROV-1 > 100 µM | KM12 > 100 µM | M14 > 100 µM | MOLT-4 > 100 µM | NCI-H23 > 100 µM | NCI-H460 > 100 µM | OVCAR-3 > 100 µM | OVCAR-4 > 100 µM | OVCAR-5 > 100 µM | RPMI-8226 34.5 µM | SF-268 > 100 µM | SF-539 > 100 µM | SK-MEL-2 > 100 µM | SK-OV-3 > 100 µM
